The text below walks through data of patent US20090028818A1, “Heterocyclic antiviral compounds” (Roche Palo Alto LLC, priority 2007, published 2009).

T1 sequence (P51681 whole entry): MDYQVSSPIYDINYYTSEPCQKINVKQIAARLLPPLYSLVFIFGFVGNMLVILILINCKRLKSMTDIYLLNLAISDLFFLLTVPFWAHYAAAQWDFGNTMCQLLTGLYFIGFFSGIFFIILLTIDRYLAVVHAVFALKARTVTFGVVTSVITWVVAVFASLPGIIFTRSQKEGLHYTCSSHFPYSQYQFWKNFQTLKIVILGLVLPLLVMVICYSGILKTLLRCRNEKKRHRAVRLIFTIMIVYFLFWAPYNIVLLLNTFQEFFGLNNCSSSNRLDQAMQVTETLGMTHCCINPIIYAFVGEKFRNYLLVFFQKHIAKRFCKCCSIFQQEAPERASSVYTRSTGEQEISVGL

The first assay concerns the target T1, Human CCR5 receptor (Homo sapiens, UniProt P51681).
T1 construct: expressed in transfected cells
Briefly: Human CCR5 receptor-ligand binding assay. As to conditions: CHO-Gα16-hCCR5 cells, 125I RANTES radioligand. From the text: Human CCR5 receptor (Genebank ID: 29169292) was cloned into mammalian expression vector, pTarget (Promega). The construct was transfected into CHO-Gα16 cells by using Fugene Reagent (Roche). Clones were selected under antibiotic pressure (G418 and Hygromycin) and sorted 4 times with a fluorescence activates cell sorter and a monoclonal antibody specific for CCR5 receptor (BD Biosciences Pharmigen, Mab 2D7, Cat. No. 555993). The clone with highest expression (100,000 copies per cell) was chosen for the binding assays.
Adherent cells in […] tissue culture flask (˜90% confluent) were harvested using 1 mM EDTA in PBS (phosphate-buffered saline) without Ca^2+ and Mg^2+. Cells were washed twice with PBS containing no Ca^2+ and Mg^2+. CHO-Gα16-hCCR5 cells were then resuspended (1×10^6/mL) in ice cold binding buffer (50 mM HEPES, 1 mM CaCl2, 5 mM MgCl2, 0.5% BSA, 0.05% NaN3, pH 7.24), pH 7.4), supplemented with freshly made 0.5% BSA and 0.05% NaN3.
Eighty μl CHO-Gα16-hCCR5 (1×10^6/mL) cells were added to 96 well plates. All dilutions were made in binding buffer (50 mM HEPES, 1 mM CaCl2, 5 mM MgCl2, 0.5% BSA, 0.05% NaN3, pH 7.24).
The plates were incubated on a cell shaker at RT for 2 h with a final concentration of 0.1 nM ^125I RANTES or ^125I MIP-1α or ^125I MIP-1β. The compound dilutions were made in PBS, 1% BSA. Total reaction volume was 100 μl per well. The test compounds were added to the cells prior to the addition of radioligand.
After incubation, the cells were harvested onto GF/C filter plates using Packard cell harvester. Filters were pretreated with 0.3% PEI/0.2% BSA for 30 min. The filter plate was washed rapidly 5 times with 25 mM HEPES, 500 mM NaCl, 1 mM CaCl2 and 5 mM MgCl2 adjusted to pH 7.1. Plates were dried in oven (70° C.) for 20 min, added with 40 μl scintillation fluid and sealed with Packard TopSeal-A. Packard Top Count was used to measure of the radioactivity for 1 min per well.
Total binding was determined with control wells added with radioisotope and buffer and the non-specific binding was determined using an excess cold RANTES to some of the control wells. Specific binding was determined by subtracting the non-specific form total binding. Results are expressed as the percentage of specific ^125I RANTES binding. IC50 values were determined using varying concentrations of the test ligand in triplicates and the data was analyzed using GraphPad Prism (GraphPad, San Diego, Calif.). c, […]
For orientation: IC50 means the concentration at which inhibition is half-maximal. Turning to `CCCCC1CN(C2CCOCC2)C(=O)N1C1CCN(C2(C)CCN(C(=O)c3c(C)cc(C#N)nc3C)CC2)CC1` (stereo not shown) [I-1, 5-{4-[5-Butyl-2-oxo-3-(tetrahydro-pyran-4-yl)-imidazolidin-1-yl]-4′-methyl-[1,4′]bipiperidinyl-1′-carbonyl}-4,6-dimethyl-pyridine-2-carbonitrile], the IC50 was found to be 8.5 nM. On to `CCCCC1CN(C2CCOCC2)C(=O)N1C1CCN(C2(C)CCN(C(=O)c3c(C)ncnc3C)CC2)CC1` (stereo not shown) [I-2], for which the IC50 is 969 nM. Molecule `CCCCC1CN(CC2CCOCC2)C(=O)N1C1CCN(C2(C)CCN(C(=O)c3c(C)ncnc3C)CC2)CC1` (stereo not shown) [I-3, 4-Butyl-3-[1′-(4,6-dimethyl-pyriridine-5-carbonyl)-4′-methyl-[1,4′]bipiperidinyl-4-yl]-1-(tetrahydro-pyran-4-ylmethyl)-imidazolidin-2-one] returned an IC50 of 110 nM.

`CCCCC1CN(CC2CCOCC2)C(=O)N1C1CCN(C2(C)CCN(C(=O)c3c(C)cc(C#N)nc3C)CC2)CC1` (stereo not shown) [I-4] showed a half-maximal inhibitory concentration (IC50) of 4.4 nM. Take `Cc1ncnc(C)c1C(=O)N1CCC(C)(N2CCC(N3C(=O)N(CC4CCOCC4)C[C@H]3c3ccccc3)CC2)CC1` [I-5, (R)-3-[1′-(4,6-Dimethyl-pyrimidine-5-carbonyl)-4′-methyl-[1 ,4′]bipiperidinyl-4-yl]-4-phenyl-1-(tetrahydro-pyran-4-ylmethyl)-imidazolidin-2-one]: the IC50 turned out to be 23.7 nM. As to `Cc1ncnc(C)c1C(=O)N1CCC(C)(N2CCC(N3C(=O)N(CC4CCOCC4)CC3c3ccccc3)CC2)CC1` (stereo not shown) [I-6, 3-[1′-(4,6-Dimethyl-pyrimidine-5-carbonyl)-4′-methyl-[1,4′]bipiperidinyl-4-yl]-4-phenyl-1-(tetrahydro-pyran4-ylmethyl)-imidazolidin-2-one], the IC50 is 27.5 nM. On the same count and under the same terms, next, `Cc1cc(C#N)nc(C)c1C(=O)N1CCC(C)(N2CCC(N3C(=O)N(CC4CCOCC4)C[C@H]3c3ccccc3)CC2)CC1` [I-7]: 11.2 nM. In the case of `Cc1noc(C(F)(F)F)c1C(=O)N1CCC(C)(N2CCC(N3C(=O)N(CC4CCOCC4)C[C@H]3c3ccccc3)CC2)CC1` [I-8], the IC50 is 5.1 nM.

As for `CCO[C@H]1CC[C@H](CN2C[C@@H](c3ccccc3)N(C3CCN(C4(C)CCN(C(=O)c5c(C)ncnc5C)CC4)CC3)C2=O)CC1` [I-9], the IC50 stood at 12.6 nM. On the same count and under the same terms, next, `CCO[C@H]1CC[C@H](CN2C[C@@H](c3ccccc3)N(C3CCN(C4(C)CCN(C(=O)c5c(C)cc(C#N)nc5C)CC4)CC3)C2=O)CC1` [I-10]: 10.6 nM. The same measure, in the same setting: next, `CCO[C@H]1CC[C@H](CN2C[C@@H](c3ccccc3)N(C3CCN(C4(C)CCN(C(=O)c5c(C)noc5C(F)(F)F)CC4)CC3)C2=O)CC1` [I-11]: 6.8 nM; `Cc1cc(C#N)nc(C)c1C(=O)N1CCC(C)(N2CCC(N3C(=O)N(C4CCOCC4)C[C@H]3c3ccccc3)CC2)CC1` [I-12]: 90 nM. With `Cc1ncnc(C)c1C(=O)N1CCC(C)(N2CCC(N3C(=O)N(C4CCOCC4)C[C@H]3c3ccccc3)CC2)CC1` [I-13], the IC50 was determined as 90 nM. Molecule `Cc1ncnc(C)c1C(=O)N1CCC(C)(N2CCC(N3C(=O)N(CC4CCN(CC(F)F)CC4)C[C@H]3c3ccccc3)CC2)CC1` [I-14, (R)-1-[1-(2,2-Difluoro-ethyl)-piperidin-4-ylmethyl]-3-[1′-(4,6-dimethyl-pyrimidine-5-carbonyl)-4′-methyl-[1,4′]bipiperidinyl-4-yl]-4-phenyl-imidazolidin-2-one] returned an IC50 of 26.4 nM. As to `Cc1cc(C#N)nc(C)c1C(=O)N1CCC(C)(N2CCC(N3C(=O)N(CC4CCN(CC(F)F)CC4)C[C@H]3c3ccccc3)CC2)CC1` [I-15], the IC50 turned out to be 18.3 nM. `COC(=O)N1CCC(CN2C[C@@H](c3ccccc3)N(C3CCN(C4(C)CCN(C(=O)c5c(C)ncnc5C)CC4)CC3)C2=O)CC1` [I-16, 4-{(R)-3-[1′-(4,6-Dimethyl-pyrimidine-5-carbonyl)-4′-methyl-[1,4′]bipiperidinyl-4-yl]-2-oxo-4-phenyl-imidazolidin-1-ylmethyl}-piperidine-1-carboxylic acid methyl ester] came in with a half-inhibitory concentration (IC50) of 25.8 nM. In the case of `COC(=O)N1CCC(CN2C[C@@H](c3ccccc3)N(C3CCN(C4(C)CCN(C(=O)c5c(C)cc(C#N)nc5C)CC4)CC3)C2=O)CC1` [I-17], the IC50 worked out at 35.7 nM.

For the molecule `Cc1cc(C#N)nc(C)c1C(=O)N1CCC(C)(N2CCC(N3C(=O)N(CC4CCN(S(C)(=O)=O)CC4)C[C@H]3c3ccccc3)CC2)CC1` [I-18, 5-{4-[(R)-3-(1-Methanesulfonyl-piperidin4-ylmethyl)-2-oxo-5-phenyl-imidazolidin-1-yl]-4′-methyl-[1,4′]bipiperidinyl-1′-carbonyl}-4,6-dimethyl-pyridine-2-carbonitrile], the IC50 was determined as 36.6 nM. As to `Cc1ncnc(C)c1C(=O)N1CCC(C)(N2CCC(N3C(=O)N(CC4CCN(S(C)(=O)=O)CC4)C[C@H]3c3ccccc3)CC2)CC1` [I-19], the IC50 was determined as 117 nM.

In the case of `CC(=O)N1CCC(CN2C[C@@H](c3ccccc3)N(C3CCN(C4(C)CCN(C(=O)c5c(C)cc(C#N)nc5C)CC4)CC3)C2=O)CC1` [I-20, 5-{4-[(R)-3-(1-Acetyl-piperidin-4-ylmethyl)-2-oxo-5-phenyl-imidazolidin-1-yl]-4′-methyl-[1,4′]bipiperidinyl-1′-carbonyl}-4,6-dimethyl-pyridine-2-carbonitrile], the IC50 was 42.5 nM. Take `Cc1cc(C#N)nc(C)c1C(=O)N1CCC(C)(N2CCC(N3C(=O)N(CC4CCN(C(N)=O)CC4)C[C@H]3c3ccccc3)CC2)CC1` [I-21, 4-{(R)-3-[1′-(6-Cyano-2,4-dimethyl-pyridine-3-carbonyl)-4′-methyl-[1,4′]bipiperidinyl-4-yl]-2-oxo-4-phenyl-imidazolidin-1-ylmethyl}-piperidine-1-carboxylic acid amide]: the IC50 is 44 nM. On to `Cc1cc(C#N)nc(C)c1C(=O)N1CCC(C)(N2CCC(N3C(=O)N(C4CCC(O)CC4)C[C@H]3c3ccccc3)CC2)CC1` (stereo partly drawn) [I-23, 5-{4-[(R)-3-(4-Hydroxy-cyclohexyl)-2-oxo-5-phenyl-imidazolidin-1-yl]-4′-methyl-[1,4′]bipiperidinyl-1′-carbonyl}-4,6-dimethyl-pyridine-2-carbonitrile], for which the IC50 came out at 20.6 nM.

In the case of `Cc1noc(C(F)(F)F)c1C(=O)N1CCC(C)(N2CCC(N3C(=O)N(C[C@H]4CC[C@H](O)CC4)C[C@H]3c3ccccc3)CC2)CC1` [I-24, (R)-1-(4-Hydroxy-cyclohexylmethyl)-3-[4′-methyl-1′-(3-methyl-5-trifluoromethyl-isoxazole-4-carbonyl)-[1,4′]bipiperidinyl-4-yl]-4-phenyl-imidazolidin-2-one], the 50% inhibitory concentration (IC50) turned out to be 7.1 nM.

For `Cc1cc(C#N)nc(C)c1C(=O)N1CCC(C)(N2CCC(N3C(=O)N(CC4CCOC4)CC3c3ccccc3)CC2)CC1` (stereo not shown) [I-25], the IC50 worked out at 54.4 nM.

Molecule `CCO[C@H]1CC[C@H](CN2C[C@@H](c3ccccn3)N(C3CCN(C4(C)CCN(C(=O)c5c(C)cc(C#N)nc5C)CC4)CC3)C2=O)CC1` [I-26, 5-{4-[(S)-3-(4-Ethoxy-cyclohexylmethyl)-2-oxo-5-pyridin-2-yl-imidazolidin-1-yl]-4′-methyl-[1,4′]bipiperidinyl-1′-carbonyl}-4,6-dimethyl-pyridine-2-carbonitrile] registered a concentration for half-maximal inhibition (IC50) of 24.7 nM.

`Cc1ncnc(C)c1C(=O)N1CCC(C)(N2CCC(N3C(=O)N(CC4CCOCC4)CC3c3cccc(F)c3)CC2)CC1` (stereo not shown) [I-27]: the IC50 was 89.4 nM.

The test system of another assay is collagen-induced arthritis.
Experiment: not given
To be noted: collagen-induced arthritis model; cited from earlier work.
For the molecule TAK-779, the “incidence and severity of arthritis” value is “reduce both the incidence and severity of arthritis”.

A further assay relates to NLBal pseudotyped HIV-1. Briefly: Antiviral assay, luciferase reporter in JC53BL cells. To be noted: Human immunodeficiency virus 1, JC53BL, 72 h, read-out: Antiviral Assay IC50. In kind it is cell-based. The procedure: The sensitivity of a recombinant HIV-1 virus pseudotyped with the envelope proteins of the CCR5-tropic virus NLBal to test compounds was determined in a Luciferase reporter assay using JC53BL cells. NLBal pseudotyped HIV-1 was generated by calcium phosphate transfection of 293T cells (ATCC) with equal amounts of DNA of an envelope-deleted HIV-1 plasmid and of a NLBal envelope expression plasmid. The media (DMEM, 10% fetal bovine serum, 1% Penicillin/streptomycin, 1% Glutamine, all Gibco) was changed 16 h post-transfection and virus containing supernatant was harvested 48 h post-transfection. To determine the sensitivity of NLBal pseudotyped HIV-1, 25.000 JC53BL cells (NIH AIDS Reagent Program) were infected with NLBal pseudotyped HIV-1 in presence of a drug gradient in white 96 well plates (Greiner Bio-one). The volume was adjusted to 200 μL using assay media (DMEM, 10% fetal bovine serum, 1% Penicillin/streptomycin, 1% Glutamine). After incubation at 37° C., 90% relative humidity, 5% CO2 for 3 days, 50 μL of Steady-Glo® Luciferase reagent (Promega) was added, incubated for 5 min at RT and luminescence was measured using a luminometer (Luminoskan, Thermo). The 50% and 90% inhibitory concentrations were calculated using Microsoft XL Fit 4 software.
(In general: In a reporter assay the amount or activity of a reporter protein is the signal.)
`CCCCC1CN(C2CCOCC2)C(=O)N1C1CCN(C2(C)CCN(C(=O)c3c(C)cc(C#N)nc3C)CC2)CC1` (stereo not shown) [I-1, 5-{4-[5-Butyl-2-oxo-3-(tetrahydro-pyran-4-yl)-imidazolidin-1-yl]-4′-methyl-[1,4′]bipiperidinyl-1′-carbonyl}-4,6-dimethyl-pyridine-2-carbonitrile]: the IC50 turned out to be 19.8 nM.
